Assay results as given in patent US11040035B2, “3-oxo-2,6-diphenyl-2,3-dihydropyridazine-4-carboxamides” (BAYER PHARMA AKTIENGESELLSCHAFT, priority 2016, dated 2021).
pIC50: −log10 of the molar value.

How the values were obtained:
AHR [1] = biological target: T1, AHR (Homo sapiens, UniProt P35869); assay: In vitro assay 1: antagonism in human cell line (transactivation assay, kynurenic acid prestimulated); conditions: Assay 1: AHR-luc Hum Antagonism IC50 [M], 150 μM kynurenic acid, 20 hours, firefly luciferase
T1 sequence (P35869 11-848): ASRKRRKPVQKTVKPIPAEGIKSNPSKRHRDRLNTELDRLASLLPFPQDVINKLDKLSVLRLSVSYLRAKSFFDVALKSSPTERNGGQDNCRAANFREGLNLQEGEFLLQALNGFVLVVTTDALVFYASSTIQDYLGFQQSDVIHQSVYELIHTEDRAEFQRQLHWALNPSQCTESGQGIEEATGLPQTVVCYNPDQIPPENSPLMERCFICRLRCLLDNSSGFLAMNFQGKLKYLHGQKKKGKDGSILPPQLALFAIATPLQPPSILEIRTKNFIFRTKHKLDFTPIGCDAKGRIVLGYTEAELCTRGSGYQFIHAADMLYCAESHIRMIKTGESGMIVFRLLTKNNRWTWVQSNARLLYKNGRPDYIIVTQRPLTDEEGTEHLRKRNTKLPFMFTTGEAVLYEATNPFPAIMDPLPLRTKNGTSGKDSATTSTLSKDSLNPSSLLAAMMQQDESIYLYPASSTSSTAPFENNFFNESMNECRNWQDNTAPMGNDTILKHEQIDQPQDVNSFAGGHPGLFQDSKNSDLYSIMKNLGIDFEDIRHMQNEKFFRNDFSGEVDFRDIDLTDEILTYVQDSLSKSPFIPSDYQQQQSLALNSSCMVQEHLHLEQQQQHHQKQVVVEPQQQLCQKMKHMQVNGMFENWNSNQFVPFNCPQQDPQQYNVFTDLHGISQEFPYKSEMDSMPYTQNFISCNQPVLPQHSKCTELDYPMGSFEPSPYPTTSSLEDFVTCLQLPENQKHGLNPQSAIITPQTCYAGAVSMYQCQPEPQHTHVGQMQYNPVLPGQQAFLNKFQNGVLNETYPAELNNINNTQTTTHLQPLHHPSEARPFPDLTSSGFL
Experimental: Transactivation assays were carried out in U87 glioblastoma cells (ATCC) endogenously expressing AHR. In addition the cells were stably transfected with an AHR inducible firefly luciferase reporter gene construct that carried AHR-binding sites (DRE) in its promoter and a renilla reporter gene construct with constitutively active promoter. Kynurenic acid is an endogenous AHR activating ligand and was used to prestimulate test cells prior to testing the antagonistic properties of compounds.
In Vitro Assay 1: Antagonism in Human Cell Line
Cells in medium (tryptophan free RPMI, 1% FCS, 2 mM Glutamine) supplemented with 150 μM kynurenic acid were grown for 20 hours in absence (negative control) or presence of increasing concentrations of test compounds (typical dilutions: 72 pmol/L, 0.25 nmol/L, 0.89 nmol/L; 3.1 nmol/L, 11 nmol/L, 38 nmol/L, 130 nmol/L, 470 nmol/L, 1.6 μmol/L, 5.7 μmol/L and 20 μmol/L in duplicates). As positive inhibition control cells supplemented with 150 μM kynurenic acid were incubated in presence of 5 μM Staurosporin. Normalization was done by positive and negative controls.
Firefly luciferase and Renilla activity was determined by the DualGlo Luciferase Assay System (Promega, #2920).

AHR [2] = biological target: T1, AHR; assay: In vitro assay 2: agonism in human cell line (transactivation assay); conditions: for IC50: Assay 2: AHR-luc Hum Agonism IC50 [M], no kynurenic acid, 20 hours, firefly luciferase; for pIC50: read-out: Assay 2: AHR-luc Hum Agonism IC50, no kynurenic acid, 20 hours, firefly luciferase

IC50 (AHR [1])	IC50 (AHR [2])	pIC50 (AHR [2])	Structure (SMILES)
8.45e-09 M	> 2e-05 M		O=C(N[C@@H]1COC[C@@H]1O)c1cc(-c2ccc(C(F)(F)F)cc2)nn(-c2cccc(F)c2)c1=O (racemic) [Example 341, 2-(3-fluorophenyl)-N-(cis-4-hydroxytetrahydrofuran-3-yl)-3-oxo-6-[4-(trifluoromethyl)phenyl]-2,3-dihydropyridazine-4-carboxamide]
4.18e-08 M	> 2e-05 M		O=C(N[C@@H]1CC[C@@H]1O)c1cc(-c2ccc(Cl)cc2)nn(-c2cccc(F)c2)c1=O (racemic) [Example 356, 6-(4-chlorophenyl)-2-(3-fluorophenyl)-N-(cis-2-hydroxycyclobutyl)-3-oxo-2,3-dihydropyridazine-4-carboxamide]
1.98e-08 M	> 2e-05 M		COc1ccc(-c2cc(C(=O)N[C@@H]3CCCC[C@@H]3O)c(=O)n(-c3cccc(F)c3)n2)cc1 (relative stereo) [Example 106, 2-(3-Fluorophenyl)-N-(cis-2-hydroxycyclohexyl)-6-(4-methoxyphenyl)-3-oxo-2,3-dihydropyridazine-4-carboxamide]
3.67e-08 M	> 2e-05 M		O=C(N[C@H]1CCCC[C@@H]1O)c1cc(-c2ccc(Cl)cc2)nn(-c2cccc(F)c2)c1=O (relative stereo) [Example 117, 6-(4-chlorophenyl)-2-(3-fluorophenyl)-N-(trans-2-hydroxycyclohexyl)-3-oxo-2,3-dihydropyridazine-4-carboxamide]
4.37e-08 M	> 2e-05 M		O=C(N[C@@H]1CCCC[C@@H]1O)c1cc(-c2ccc(OC(F)F)cc2)nn(-c2cccc(F)c2)c1=O (relative stereo) [Example 130, 6-[4-(Difluoromethoxy)phenyl]-2-(3-fluorophenyl)-N-(cis-2-hydroxycyclohexyl)-3-oxo-2,3-dihydropyridazine-4-carboxamide]
1.72e-07 M	> 2e-05 M		O=C(N[C@H]1COC[C@@H]1O)c1cc(-c2ccc(Cl)cc2)nn(-c2cccc(F)c2)c1=O (relative stereo) [Example 134, 6-(4-Chlorophenyl)-2-(3-fluorophenyl)-N-(trans-4-hydroxytetrahydrofuran-3-yl)-3-oxo-2,3-dihydropyridazine-4-carboxamide]
8.07e-08 M	> 2e-05 M		C[C@H](O)[C@H](C)NC(=O)c1cc(-c2ccc(OC(F)F)cc2)nn(-c2cccc(F)c2)c1=O (relative stereo) [Example 143, rel-6-[4-(Difluoromethoxy)phenyl]-2-(3-fluorophenyl)-N-[(2S,3S)-3-hydroxybutan-2-yl]-3-oxo-2,3-dihydropyridazine-4-carboxamide]
1.32e-07 M	> 2e-05 M		COc1ccc(-c2cc(C(=O)N[C@@H]3CCCC[C@H]3O)c(=O)n(-c3cccc(F)c3)n2)cc1 (relative stereo) [Example 152, 2-(3-Fluorophenyl)-N-trans-2-hydroxycyclohexyl-6-(4-methoxyphenyl)-3-oxo-2,3-dihydropyridazine-4-carboxamide]
1.69e-07 M	> 2e-05 M		COc1ccc(-c2cc(C(=O)N[C@@H]3CCC[C@H]3O)c(=O)n(-c3cccc(F)c3)n2)cc1 (relative stereo) [Example 154, 2-(3-Fluorophenyl)-N-(trans-2-hydroxycyclopentyl)-6-(4-methoxyphenyl)-3-oxo-2,3-dihydropyridazine-4-carboxamide]
2.06e-08 M	> 2e-05 M		O=C(N[C@@H]1CCCC(F)(F)[C@H]1O)c1cc(-c2ccc(Cl)cc2)nn(-c2cccc(F)c2)c1=O (relative stereo) [Example 274, 6-(4-Chlorophenyl)-N-[(trans)-3,3-difluoro-2-hydroxycyclohexyl]-2-(3-fluorophenyl)-3-oxo-2,3-dihydropyridazine-4-carboxamide]
8.14e-08 M	> 2e-05 M		C[C@H](O)[C@H](C)NC(=O)c1cc(-c2ccc(Cl)c(F)c2)nn(-c2cccc(F)c2)c1=O (relative stereo) [Example 290, rel-6-(4-Chloro-3-fluorophenyl)-2-(3-fluorophenyl)-N-[(2S,3S)-3-hydroxybutan-2-yl]-3-oxo-2,3-dihydropyridazine-4-carboxamide]
8.51e-08 M	> 2e-05 M		O=C(N[C@@H]1CCCC[C@@H]1O)c1cc(-c2ccc(Cl)c(F)c2)nn(-c2cccc(F)c2)c1=O (relative stereo) [Example 291, 6-(4-Chloro-3-fluorophenyl)-2-(3-fluorophenyl)-N-(cis-2-hydroxycyclohexyl)-3-oxo-2,3-dihydropyridazine-4-carboxamide]
1.21e-07 M	> 2e-05 M		C[C@H](O)[C@H](C)NC(=O)c1cc(-c2ccc(Cl)c(Cl)c2)nn(-c2cccc(F)c2)c1=O (relative stereo) [Example 305, rel-6-(3,4-Dichlorophenyl)-2-(3-fluorophenyl)-N-[(2S,3S)-3-hydroxybutan-2-yl]-3-oxo-2,3-dihydropyridazine-4-carboxamide]
5.88e-07 M	> 2e-05 M		C[C@H](O)[C@H](C)NC(=O)c1cc(-c2ccc(Cl)cc2)nn(-c2cc(Cl)cc(Cl)c2)c1=O (relative stereo) [Example 312, 6-(4-Chlorophenyl)-2-(3,5-dichlorophenyl)-N-[(2S,3S)-3-hydroxybutan-2-yl]-3-oxo-2,3-dihydropyridazine-4-carboxamide]
2.48e-07 M	> 2e-05 M		O=C(N[C@H]1COC[C@@H]1O)c1cc(-c2ccc(N3CCOCC3)cc2)nn(-c2cccc(F)c2)c1=O (relative stereo) [Example 378, rel-2-(3-fluorophenyl)-N-[(3R,4S)-4-hydroxytetrahydrofuran-3-yl]-6-[4-(morpholin-4-yl)phenyl]-3-oxo-2,3-dihydropyridazine-4-carboxamide]
6.9e-07 M	> 2e-05 M		CN1C[C@H](O)[C@H](NC(=O)c2cc(-c3ccc(Cl)cc3)nn(-c3cccc(F)c3)c2=O)C1 (relative stereo) [Example 388, 6-(4-chlorophenyl)-2-(3-fluorophenyl)-N-[cis-4-hydroxy-1-methylpyrrolidin-3-yl]-3-oxo-2,3-dihydropyridazine-4-carboxamide]
1.81e-07 M	> 2e-05 M		COCC(O)CNC(=O)c1cc(-c2ccc(Cl)cc2)nn(-c2cccc(F)c2)c1=O (single isomer, unassigned) [Example 32, 6-(4-Chlorophenyl)-2-(3-fluorophenyl)-N-(2-hydroxy-3-methoxypropyl)-3-oxo-2,3-dihydropyridazine-4-carboxamide]
2.11e-07 M		< 4.70	COCC(O)CNC(=O)c1cc(-c2ccc(Cl)cc2)nn(-c2cccc(F)c2)c1=O (single isomer, unassigned) [Example 33, 6-(4-Chlorophenyl)-2-(3-fluorophenyl)-N-(2-hydroxy-3-methoxypropyl)-3-oxo-2,3-dihydropyridazine-4-carboxamide]
2.76e-08 M	> 2e-05 M		O=C(NC(CO)C1CCOC1)c1cc(-c2ccc(Cl)cc2)nn(-c2cccc(F)c2)c1=O (single isomer, unassigned) [Example 39]
1.17e-07 M		< 4.70	O=C(NC(CO)C1CCOC1)c1cc(-c2ccc(Cl)cc2)nn(-c2cccc(F)c2)c1=O (single isomer, unassigned) [Example 40, 6-(4-Chlorophenyl)-2-(3-fluorophenyl)-N-[2-hydroxy-1-(tetrahydrofuran-3-yl)ethyl]-3-oxo-2,3-dihydropyridazine-4-carboxamide]
2.15e-07 M		< 4.70	O=C(NC(CO)C1CCOC1)c1cc(-c2ccc(Cl)cc2)nn(-c2cccc(F)c2)c1=O (single isomer, unassigned) [Example 41, 6-(4-Chlorophenyl)-2-(3-fluorophenyl)-N-[2-hydroxy-1-(tetrahydrofuran-3-yl)ethyl]-3-oxo-2,3-dihydropyridazine-4-carboxamide]
3.44e-07 M		< 4.70	O=C(NC(CO)C1CCOC1)c1cc(-c2ccc(Cl)cc2)nn(-c2cccc(F)c2)c1=O (single isomer, unassigned) [Example 42, 6-(4-Chlorophenyl)-2-(3-fluorophenyl)-N-[2-hydroxy-1-(tetrahydrofuran-3-yl)ethyl]-3-oxo-2,3-dihydropyridazine-4-carboxamide]
5.64e-08 M		< 4.70	O=C(NCC(O)C(F)(F)F)c1cc(-c2ccc(Cl)cc2)nn(-c2cc(F)cc(F)c2)c1=O (single isomer, unassigned) [Example 46, 6-(4-Chlorophenyl)-2-(3,5-difluorophenyl)-3-oxo-N-(3,3,3-trifluoro-2-hydroxypropyl)-2,3-dihydropyridazine-4-carboxamide]
